Experimental data reported in article PMC7731314, “Tropinone-Derived Alkaloids as Potent Anticancer Agents: Synthesis, Tyrosinase Inhibition, Mechanism of Action, DFT Calculation, and Molecular Docking Studies” (International Journal of Molecular Sciences, 2020).
Like-named read-outs stand apart in the source and are kept apart here.

What was measured:
[1] = tested on: human breast adenocarcinoma (MDA-MB-231) cell line; assay: MTT cell proliferation assay, MDA-MB-231; assay type: cell-based; conditions: read-out: IC50 ± SD MDA-MB-231
Excerpt: (§1) The influence of the tested compounds on the proliferation of melanoma B16F10 and breast MDA-MB-231 cells was estimated with the MTT assay as described previously. The cells counted using an automated cell counter (Countess® II FL, Invitrogen by Thermo Fisher Scientific Inc., Waltham, MA USA) and plated in 96-well plates (Nunc Edge 2F, Thermo Fisher Scientific Inc.) at a density of 0.1 × 10^4 and 0.2 × 10^4 per well, respectively. A total of twenty-four hours later, drugs were applied with final concentration: 5, 0.5, 0.05, and 0.005 μg/mL, and after an additional seventy-two hours MTT staining was performed as follows: twenty microliters of 5 mg/mL MTT solution and was added to each well of 96-well plate incubated for 2 h. Subsequently, the medium was removed and crystals of formazan were solubilized in pure isopropanol. Absorbance readout was conducted immediately using plate reader Multiskan Spectrum at 570 nm (Thermo Electron Corporation, Waltham, MA, USA). The background optical density was measured in the wells filled with culture medium, without the cells. The biological evaluation was performed as three independent experiments. The IC50 values were calculated using ED50plus v 1.0 freeware software and the mean response and standard deviation were calculated using Excel software. All of the chemicals were obtained from Sigma-Aldrich.

[2] = tested on: mouse skin melanoma (B16-F10) cell line; assay: MTT cell proliferation assay, B16-F10; assay type: cell-based; conditions: read-out: IC50 ± SD B16-F10
Excerpt: as §1

[3] = tested on: human lung carcinoma (A549) cell line; assay: MTT cell proliferation assay, A549; assay type: cell-based; conditions: antiproliferative, 96 h, read-out: IC50 ± SD A549
Protocol: (§2) The influence of the tested compounds on the proliferation of RPMI 8226 and A549 cells was estimated with the MTT assay as described previously. Briefly, 1 × 10^4 cells/mL (RPMI 8226) or 0.2 × 10^4 (A549) cells per well were seeded into 96-well plates and cultured (in growth medium containing 10% FBS) with different concentrations of each compound ranging from 3.125 to 100 μM. The control cells were treated with the vehicle DMSO (0.1%).

[4] = tested on: human multiple myeloma (RPMI 8226) cell line; assay: MTT cell proliferation assay, RPMI 8226; assay type: cell-based; conditions: antiproliferative, 96 h, read-out: IC50 ± SD RPMI 8226
Protocol: as §2

[5] = molecular target: mushroom tyrosinase (Agaricus bisporus, UniProt C7FF04); assay: Kinetic analysis of the inhibition of tyrosinase (Lineweaver-Burk); assay type: biochemical; conditions: tyrosinase-catalyzed oxidation of L-DOPA
Protocol: To understand the mechanism of mushroom tyrosinase inhibition by new compounds 3a–3h, enzyme inhibition kinetic studies were performed. The mechanism of tyrosinase inhibition was determined using Lineweaver–Burk plot, which is a useful graphical method for analysis of the Michaelis–Menten equations used to determine the inhibition constant […].
A series of experiments were performed to determine the inhibition kinetics of compounds by following the already reported method. The inhibitor concentrations for compounds were 50 and 100 µM. Substrate L-DOPA concentration was between 100 and 250 µM in all kinetic studies. Maximal initial velocity was determined from the initial linear portion of absorbance up to ten minutes after addition of enzyme. The inhibition type of the enzyme, Michaelis constant (KM) and maximal velocity (Vmax) were determined by Lineweaver–Burk plots of inverse of velocities (1/V) versus inverse of substrate concentration 1/[L-DOPA] mM^−1.

[6] = tested on: human normal skin fibroblasts (HSF)
Protocol: (§3) The human normal skin fibroblasts, i.e., the HSF cell line, were a laboratory strain obtained with the outgrowth technique from skin explants from young volunteers (with subjects’ written informed consent). […] The CCD18-Co cells were grown in Eagle Medium (Sigma-Aldrich, St. Louis, MO, USA) supplemented with 2 mM L-glutamine (Sigma-Aldrich) and 1mM sodium pyruvate (Sigma-Aldrich, St. Louis, MO, USA), 10% FBS, (without antibiotics). HSF were cultured in a 1:1 mixture of Dulbecco’s modified Eagle Medium and Eagle Medium (Sigma-Aldrich) containing 10% FBS, 100 units/mL of penicillin, and 100 mg/mL of streptomycin. […] All cell lines were cultured in a humidified 5% CO2 atmosphere at a temperature of 37 °C. A stock solution of each tested compound was made in dimethylsulfoxide (DMSO; Sigma-Aldrich) and stored at 4 °C until use. The drug was diluted in an appropriate culture medium immediately before use.
(§4) The influence of the tested compounds on normal cell viability was estimated with the MTT assay. The CCD-18Co and HSF cells were seeded in 96-well microplates at a density of 1 × 10^5 cells/mL in complete growth medium. The next day, the medium was replaced with a fresh one containing 2% FBS (growth restriction) and the cells were exposed to each tested compound (3.156–100 µM) to study the acute toxicity in vitro. After 24-h incubation, the medium was removed and the cells were incubated for 3 h with an MTT solution; next, formazan crystals were solubilized overnight by adding SDS buffer and absorbance was determined at a wavelength of 570 nm using an EL800 Microplate Reader (BioTek Instruments, Winooski, VT, USA). The absorbance of the control wells was taken as 100% and the cell viability was expressed as a percentage of the control. CC50 values, defined as concentrations of the compounds necessary to reduce cell viability by 50%, were calculated from nonlinear regression (log(inhibitor) vs. normalized response-variable slope) using GraphPad Prism 5.0.

[7] = in vitro; conditions: human
Protocol: as §3, §4

[8] = in vitro
Protocol: as §3, §4

[9] = tested on: human normal colon fibroblasts (CCD-18Co)
Protocol: as §3, §4

[10] = MDA-MB-231, antiproliferative, MTT, 72 h
[11] = B16-F10, antiproliferative, MTT, 72 h

Chain of mushroom tyrosinase (C7FF04 1-392): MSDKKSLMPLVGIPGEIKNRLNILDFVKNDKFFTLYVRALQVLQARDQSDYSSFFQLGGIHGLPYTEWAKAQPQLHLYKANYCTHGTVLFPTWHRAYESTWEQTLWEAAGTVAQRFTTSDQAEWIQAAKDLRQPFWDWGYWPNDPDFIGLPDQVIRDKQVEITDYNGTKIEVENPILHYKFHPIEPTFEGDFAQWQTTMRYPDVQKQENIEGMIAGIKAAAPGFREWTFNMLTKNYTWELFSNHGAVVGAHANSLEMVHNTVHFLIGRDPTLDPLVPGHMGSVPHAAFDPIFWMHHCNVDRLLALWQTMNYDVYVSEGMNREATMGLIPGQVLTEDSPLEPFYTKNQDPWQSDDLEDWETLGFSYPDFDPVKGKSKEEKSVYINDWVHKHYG

SMILES	IC50 ([1]; MDA-MB-231, 72 h) [nM]	IC50 ([2]; B16-F10, 72 h) [nM]	IC50 [3] [µM]	IC50 [1, 10] [nM]	IC50 [2, 11] [nM]	IC50 [4] [µM]	melting point [°C]	Inhibitory Mechanism [5]	CC50 ± SD HSF [6]	CC50 at 24 h [7] [µM]	CC50 at 24 h [8] [µM]	CC50 ± SD CCD-18Co [9]
O=C(O)CCCc1ccc(N(CCCl)CCCl)cc1 [Chlorambucil, reference compound]	4710 ± 500	2920 ± 100										
COc1ccc(-c2csc(NN=C3CC4CCC(C3)N4C)n2)cc1 [Compound 3b, 4-(4-Methoxyphenyl)-2-(2-(8-methyl-8-azabicyclo[3.2.1]octan-3-ylidene)hydrazinyl)thiazole]			133 ± 25.1	2530 ± 70	2200 ± 40	42.2 ± 4.55	91 to 93	mixed				
CN1C2CCC1CC(=NNc1nc(-c3ccc(C#N)cc3)cs1)C2 [Compound 3c, 4-[2-[2-(8-Methyl-8-azabicyclo[3.2.1]oct-3-ylidene)hydrazinyl]-1,3-thiazol-4-yl]benzonitrile]			74.9 ± 7.65	2700 ± 140	1520 ± 130	31.7 ± 2.77	90 to 92	mixed				
CN1C2CCC1CC(=NNc1nc(-c3ccc([N+](=O)[O-])cc3)cs1)C2 [Compound 3d, 4-(4-Nitrophenyl)-2-(2-(8-methyl-8-azabicyclo[3.2.1]octan-3-ylidene)hydrazinyl)thiazole]			31 ± 4.62	2440 ± 140	1910 ± 40	17.9 ± 1.78	99 to 101	mixed				
CN1C2CCC1CC(=NNc1nc(-c3ccc(N)cc3)cs1)C2 [Compound 3e, 4-[2-[2-(8-Methyl-8-azabicyclo[3.2.1]oct-3-ylidene)hydrazinyl]-1,3-thiazol-4-yl]aniline]			263 ± 105	2810 ± 120	2680 ± 400	67 ± 7.14	85 to 87	mixed	no toxicity	> 100	> 100	no toxicity
CN1C2CCC1CC(=NNc1nc(-c3ccc(NS(C)(=O)=O)cc3)cs1)C2 [Compound 3f, N-(4-[2-[2-(8-Methyl-8-azabicyclo[3.2.1]oct-3-ylidene)hydrazinyl]-1,3-thiazol-4-yl]phenyl)methane-sulfonamide]			117 ± 22.8	2480 ± 80	2140 ± 230	107 ± 7.22	98 to 100	mixed	weak	> 100	98.7 ± 4.16	no toxicity
CN1C2CCC1CC(=NNc1nc(-c3cc4ccccc4oc3=O)cs1)C2 [Compound 3g, 3-[2-[2-(8-Methyl-8-azabicyclo[3.2.1]oct-3-ylidene)hydrazinyl]-1,3-thiazol-4-yl]-2H-chromen-2-one]			29.3 ± 3.98	2830 ± 60	3000 ± 260	23.2 ± 4.52	110 to 113	mixed		42.6 ± 5.89	35.3 ± 5.52	
CC(=O)Nc1ccc(-c2csc(NN=C3CC4CCC(C3)N4C)n2)cc1 [Compound 3h, N-(4-[2-[2-(8-Methyl-8-azabicyclo[3.2.1]oct-3-ylidene)hydrazinyl]-1,3-thiazol-4-yl]phenyl)acetamide]			189 ± 33	2900 ± 250	3030 ± 180	108 ± 4.8	97 to 99	mixed	no toxicity	> 100	> 100	no toxicity
